Literature values in patent US7863316B2, “Extended release formulation of Levetiracetam” (UCB Pharma S.A., priority 2005, dated 2011).

Columns and labels:
[1] = not given; remark: listed apart in the source
[2] = three different pH media, immediate release tablet

Compound: CC[C@@H](C(N)=O)N1CCCC1=O [Levetiracetam, (−)-(S)-α-ethyl-2-oxo-1-pyrrolidine acetamide]
- solubility in acetonitrile (acetonitrile): 5.7 g/100 mL
- solubility in chloroform (chloroform): 65.3 g/100 mL
- solubility in ethanol (ethanol): 16.5 g/100 mL
- solubility in methanol (methanol): 53.6 g/100 mL
- solubility in n-hexane (n-hexane): practically insoluble
- aqueous solubility (water): 104 g/100 mL
- time to steady state kinetics ([1]; after multiple twice daily dosing): 2 days
- bound to plasma proteins ([1]; in vivo): less than 10%
- renal clearance ([1]; in vivo): 0.6 mL/min/kg
- total body clearance ([1]; in vivo): 0.9 mL/min/kg
- volume of distribution ([1]; in vivo): 0.6 L/kg
- decrease of cmax by food ([1]; with food): 20%
- delay of Tmax by food ([1]; with food): 1.5 h
- tablet amount released in 15 minutes [2]: > 85%
